From ChEMBL document CHEMBL4699440, “Comprehensive review on the anti-bacterial activity of 1,2,3-triazole hybrids” (Eur J Med Chem, 2019)

Assays:
Escherichia coli = experiment: Antibacterial activity against Escherichia coli ATCC 25922 incubated for 16 to 18 hrs by serial plate dilution method; format: functional; conditions: time hrs 16-18
Staphylococcus aureus [1] = experiment: Antibacterial activity against methicillin-resistant Staphylococcus aureus ATCC 25923 incubated for 16 to 18 hrs by serial plate dilution method; format: functional; conditions: time hrs 16-18
Aspergillus flavus = experiment: Antifungal activity against Aspergillus flavus NCIM 524 incubated for 3 to 4 days by serial plate dilution method; format: functional; conditions: time day 3-4
Pseudomonas aeruginosa = experiment: Antibacterial activity against Pseudomonas aeruginosa ATCC 27853 incubated for 16 to 18 hrs by serial plate dilution method; format: functional; conditions: time hrs 16-18
Talaromyces marneffei = experiment: Antifungal activity against Penicillium marneffei incubated for 3 to 4 days by serial plate dilution method; format: functional; conditions: time day 3-4
[2] = tested on: Trichophyton mentagrophytes; experiment: Antifungal activity against Trichophyton mentagrophytes incubated for 3 to 4 days by serial plate dilution method; format: functional; conditions: time day 3-4
Aspergillus fumigatus = experiment: Antifungal activity against Aspergillus fumigatus NCIM 902 incubated for 3 to 4 days by serial plate dilution method; format: functional; conditions: time day 3-4
Klebsiella pneumoniae = experiment: Antibacterial activity against Klebsiella pneumoniae incubated for 16 to 18 hrs by serial plate dilution method; format: functional; conditions: time hrs 16-18
KB = experiment: Cytotoxicity against human KB cells; format: cell-based; conditions: Homo sapiens, KB
Bacillus cereus = experiment: Antibacterial activity against Bacillus cereus; format: functional
Staphylococcus aureus [3] = experiment: Antibacterial activity against Staphylococcus aureus; format: functional

COc1ccc(/C=N/NC(=O)c2nnn(-c3cc(C(F)(F)F)nc4c(C(F)(F)F)cccc34)c2C)c([N+](=O)[O-])c1OC
6.25 µg/mL: MIC (Escherichia coli) | MIC (Staphylococcus aureus [1]) | MIC (Aspergillus flavus) | MIC (Pseudomonas aeruginosa) | MIC (Talaromyces marneffei) | MIC [2] | MIC (Aspergillus fumigatus) | MIC (Klebsiella pneumoniae)

Cc1c(C(=O)N/N=C/c2cccnc2)nnn1-c1cc(C(F)(F)F)nc2c(C(F)(F)F)cccc12
6.25 µg/mL: MIC (Escherichia coli) | MIC (Staphylococcus aureus [1]) | MIC (Aspergillus flavus) | MIC (Pseudomonas aeruginosa) | MIC (Talaromyces marneffei) | MIC [2] | MIC (Aspergillus fumigatus) | MIC (Klebsiella pneumoniae)

Cc1ccsc1/C=N/NC(=O)c1nnn(-c2cc(C(F)(F)F)nc3c(C(F)(F)F)cccc23)c1C
6.25 µg/mL: MIC (Escherichia coli) | MIC (Staphylococcus aureus [1]) | MIC (Aspergillus flavus) | MIC (Pseudomonas aeruginosa) | MIC (Talaromyces marneffei) | MIC [2] | MIC (Aspergillus fumigatus) | MIC (Klebsiella pneumoniae)

Cc1c(C(=O)N/N=C/c2ccc(-c3ccccc3)cc2)nnn1-c1cc(C(F)(F)F)nc2c(C(F)(F)F)cccc12
6.25 µg/mL: MIC (Escherichia coli) | MIC (Staphylococcus aureus [1]) | MIC (Aspergillus flavus) | MIC (Pseudomonas aeruginosa) | MIC (Talaromyces marneffei) | MIC [2] | MIC (Aspergillus fumigatus) | MIC (Klebsiella pneumoniae)

COc1ccc2ccc(-c3cn(C(C)(C)C(=O)N4CC[C@@H](C(=O)NC(C)(C)C(=O)N[C@@H](C)C(=O)NC(C)(C)C(=O)N[C@@H](C)C(=O)N[C@@H](CCC(N)=O)C(=O)NC(C)(C)C(=O)N[C@H](C(=O)NC(C)(C)C(=O)NCC(=O)N[C@@H](CC(C)C)C(=O)NC(C)(C)C(=O)N5CCC[C@@H]5C(=O)N[C@H](C(=O)NC(C)(C)C(=O)NC(C)(C)C(=O)N[C@@H](CCC(N)=O)C(=O)N[C@@H](CCC(N)=O)C(=O)N[C@H](CO)Cc5ccccc5)C(C)C)C(C)C)C4)nn3)cc2c1
1.56 µg/mL: MIC (Bacillus cereus) | MIC (Staphylococcus aureus [3])
2.9 µg/mL: IC50 (KB)

CC(C)C[C@H](NC(=O)CNC(=O)C(C)(C)NC(=O)[C@@H](NC(=O)C(C)(C)NC(=O)[C@H](CCC(N)=O)NC(=O)[C@H](C)NC(=O)C(C)(C)NC(=O)[C@H](C)NC(=O)C(C)(C)NC(=O)[C@@H]1CCN(C(=O)C(C)(C)n2cc(-c3cc(F)cc(F)c3)nn2)C1)C(C)C)C(=O)NC(C)(C)C(=O)N1CCC[C@@H]1C(=O)N[C@H](C(=O)NC(C)(C)C(=O)NC(C)(C)C(=O)N[C@@H](CCC(N)=O)C(=O)N[C@@H](CCC(N)=O)C(=O)N[C@H](CO)Cc1ccccc1)C(C)C
1.56 µg/mL: MIC (Bacillus cereus) | MIC (Staphylococcus aureus [3])
2.9 µg/mL: IC50 (KB)

COc1cccc(/C=N/NC(=O)c2nnn(-c3cc(C(F)(F)F)nc4c(C(F)(F)F)cccc34)c2C)c1O
6.25 µg/mL: MIC (Escherichia coli) | MIC (Staphylococcus aureus [1]) | MIC (Aspergillus flavus) | MIC (Pseudomonas aeruginosa) | MIC (Talaromyces marneffei) | MIC [2] | MIC (Aspergillus fumigatus) | MIC (Klebsiella pneumoniae)

COc1ccc2cc(/C=N/NC(=O)c3nnn(-c4cc(C(F)(F)F)nc5c(C(F)(F)F)cccc45)c3C)ccc2c1
6.25 µg/mL: MIC (Escherichia coli) | MIC (Staphylococcus aureus [1]) | MIC (Aspergillus flavus) | MIC (Pseudomonas aeruginosa) | MIC (Talaromyces marneffei) | MIC [2] | MIC (Aspergillus fumigatus) | MIC (Klebsiella pneumoniae)

CC(C)C[C@H](NC(=O)CNC(=O)C(C)(C)NC(=O)[C@@H](NC(=O)C(C)(C)NC(=O)[C@H](CCC(N)=O)NC(=O)[C@H](C)NC(=O)C(C)(C)NC(=O)[C@H](C)NC(=O)C(C)(C)NC(=O)[C@@H]1CCN(C(=O)C(C)(C)n2cc(-c3ccc(F)c(F)c3)nn2)C1)C(C)C)C(=O)NC(C)(C)C(=O)N1CCC[C@@H]1C(=O)N[C@H](C(=O)NC(C)(C)C(=O)NC(C)(C)C(=O)N[C@@H](CCC(N)=O)C(=O)N[C@@H](CCC(N)=O)C(=O)N[C@H](CO)Cc1ccccc1)C(C)C
2.9 µg/mL: IC50 (KB)
1.56 µg/mL: MIC (Bacillus cereus) | MIC (Staphylococcus aureus [3])

COc1ccc(/C=N/NC(=O)c2nnn(-c3cc(C(F)(F)F)nc4c(C(F)(F)F)cccc34)c2C)c(OC)c1OC
6.25 µg/mL: MIC (Escherichia coli) | MIC (Staphylococcus aureus [1]) | MIC (Aspergillus flavus) | MIC (Pseudomonas aeruginosa) | MIC (Talaromyces marneffei) | MIC [2] | MIC (Aspergillus fumigatus) | MIC (Klebsiella pneumoniae)

COc1ccc(/C=N/NC(=O)c2nnn(-c3cc(C(F)(F)F)nc4c(C(F)(F)F)cccc34)c2C)cc1
6.25 µg/mL: MIC (Escherichia coli) | MIC (Staphylococcus aureus [1]) | MIC (Aspergillus flavus) | MIC (Pseudomonas aeruginosa) | MIC (Talaromyces marneffei) | MIC [2] | MIC (Aspergillus fumigatus) | MIC (Klebsiella pneumoniae)

COc1cccc(/C=N/NC(=O)c2nnn(-c3cc(C(F)(F)F)nc4c(C(F)(F)F)cccc34)c2C)c1
6.25 µg/mL: MIC (Escherichia coli) | MIC (Staphylococcus aureus [1]) | MIC (Aspergillus flavus) | MIC (Pseudomonas aeruginosa) | MIC (Talaromyces marneffei) | MIC [2] | MIC (Aspergillus fumigatus) | MIC (Klebsiella pneumoniae)
